# Source: patent publication US20070142348A1, “Microbicidal, prophylactic and therapeutic effect of ctc-96 on papilloma viruses” (REDOX PHARMACEUTICAL CORPORATION, AUDUBON […] AND […], priority 2003, published 2007)
# Where “and” joins values, the source holds several entries; their conditions need not be identical. Equal entries are not always repeated.
# Assays:
# [1] = tested on: Bovine Papillomavirus Type 1 (BPV-1); assay: Inhibition of BPV-1 transformation of C127 mouse epithelial cells: exposure of virus to drug prior to infection; assay type: cell-based; details: duplicate values
# Method: Experiments were performed to determine if CTC-96™ can inactivate the ability of bovine papillomavirus type 1 (BPV-1) to morphologically transform C127 mouse epithelial cells in culture. Cell-free stocks of BPV-1 were treated with CTC-96™ or placebo. In order to detect the transforming ability of BPV-1, sub-confluent cultures of C127 mouse cells are infected with a standardized inoculate of BPV-1. For the positive controls, stock virus was added to the culture medium present on the cells. The presence of morphologically transformed foci was counted after 2 weeks and then again at 3 weeks. Controls included non-infected cells (with or without drug) and untreated BPV-1.
# Bovine Papillomavirus Type 1 (BPV-1) was mixed with CTC-96™, incubated for 10 minutes at 37° C. and then added to the cells. It is clear that CTC-96™ can inhibit the appearance of bovine Papillomavirus type 1 (BPV-1) induced transformation of C127 mouse epithelial cells in culture (Table 9).
# HPV-11 = assay: Effect of CTC-96 on the infectivity of HPV-11 (virus incubated with CTC-96 prior to infection of foreskin fragments), human xenograft SCID mouse model; assay type: in vivo, SCID mice; details: for Immunocytochemistry: grafts Negative for HPV (number): foreign body/fibrous counted as negative; for Histology: grafts Negative for HPV (number): foreign body reaction/fibrous tissue counted as negative; for Composite Geometric Mean Diameters (cGMD) of the Grafts, Median: 12 weeks; for Composite Geometric Mean Diameters (cGMD) of the Grafts, Mean ± SD: 12 weeks after grafting
# Method: The effect of CTC-96™ on the infectivity of HPV-11 was evaluated in the human xenograft SCID mouse model. HPV type 11 is, with HPV-6, one of the two viruses responsible for the majority of anogenital warts in humans.
# CTC-96™ in saline was incubated with HPV-11 prior to infection of human neonatal foreskin fragments. The fragments were then grafted onto SCID mice. The animals were monitored weekly. They were weighed at the time of grafting, and every other week during the 12 weeks of the experiment. There was no effect of HPV-11 treatment by CTC-96™ on the weight of the mice. The animals were sacrificed by cervical dislocation 12 weeks after graft implantation. Length, width, and height of the graft were measured and recorded. A composite geometric mean diameter (cGMD) of the grafts was calculated for each mouse. The grafts were then removed and analyzed by histology, immunocytochemistry and RT-PCR. Graft evaluation by immunocytochemistry utilized anti-common Papillomavirus antigen^4. Explanted grafts were homogenized and total RNA was extracted. HPV-11 viral cDNA was generated by nested RT-PCR.
# Presence of HPV was defined by the presence of two out of three of the following features: acanthosis (an increase in the thickness of the stratum spinosum of the epidermis) koilocytosis (perinuclear vacuolation), or parakeratosis (persistence of the nuclei in the cells of the stratum corneum of the epidermis). As the CTC-96™ concentration increases the percentages of grafts containing HPV decreases, with none positive at the two higher concentrations. […] Two explanations are possible for the high number of foreign body reactions present in the grafts infected with the HPV-11 treated with the two highest concentrations of CTC-96™. The first is that CTC-96™ completely inactivated HPV-11. […] The alternate explanation is that CTC-96™ was toxic to the graft itself. This is unlikely since CTC-96™ has been used in vitro and in vivo in intravaginal preparations without associated toxicities at the concentrations used, and at the lowest concentration of CTC-96™ (0.05%), the number of grafts with a foreign body reaction was not different than that in the control group, thus toxicity would be unlikely to account for the lower number of HPV positive grafts (P=0.0 15; by Fisher exact test). Since CTC-96™ has a clear virucidal action at the lowest concentration (see Table 4), it is reasonable to assume that this virucidal action is present at higher concentrations, independent of the presence of a cytotoxic effect.
# Table 4 presents the results and analysis of the HPV RT-PCR, which was performed by extracting total RNA from homogenized, explanted grafts and generating HPV-11 viral cDNA by nested RT-PCR. Using this assay, there is a strong and clear dose-response effect. Only with the highest dose of CTC-96™ is there complete obliteration of viral transcriptional activity.
# [2] = HPV-11 treated with CTC-96 0.05%
# [3] = HPV-11 treated with CTC-96 0.2%
# [4] = concentration not printed in the table row (0.2% group)
structure (smiles),measurement,setting,value
CC(/C=C(/C)[O-])=NCCN=C(C)/C=C(/C)[O-].Cc1ncc[nH]1.Cc1ncc[nH]1.[Br-].[Co+3] [CTC-96],Number of Transformed Foci at 3 weeks,"[1]; CTC-96 0.1 mg/ml mixed with BPV-1, 10 minutes at 37° C.",68 and 80
same,Number of Transformed Foci at 3 weeks,"[1]; CTC-96 0.2 mg/ml mixed with BPV-1, 10 minutes at 37° C.",80 and 82
same,Number of Transformed Foci at 3 weeks,"[1]; CTC-96 0.5 mg/ml mixed with BPV-1, 10 minutes at 37° C.",25 and 40
same,Effect on the weight of the mice,HPV-11; 12 weeks of the experiment,no effect
same,Histology: grafts Positive for HPV (number),HPV-11; CTC-96 0.05%,4
same,Histology: grafts Positive for HPV (percent),HPV-11; CTC-96 0.05%,(26.7%)
same,Immunocytochemistry: grafts Positive for HPV (number),HPV-11; CTC-96 0.05%,2
same,Immunocytochemistry: grafts Positive for HPV (percent),HPV-11; CTC-96 0.05%,(12.5%)
same,RT-PCR: grafts HPV-11 Negative (number),HPV-11; CTC-96 0.05%,7
same,RT-PCR: grafts HPV-11 Positive (number),HPV-11; CTC-96 0.05%,9
same,RT-PCR: grafts HPV-11 Positive (percent),HPV-11; CTC-96 0.05%,(56.2%)
same,Immunocytochemistry: grafts Negative for HPV (number),"HPV-11; CTC-96 0.05%, anti-common Papillomavirus antigen",14
same,Histology: grafts Negative for HPV (number),HPV-11; CTC-96 0.05%,11
same,Histology: grafts Positive for HPV (number),HPV-11; CTC-96 0.2%,0
same,Histology: grafts Positive for HPV (percent),HPV-11; CTC-96 0.2%,(0%)
same,Immunocytochemistry: grafts Positive for HPV (number),HPV-11; CTC-96 0.2%,0
same,Immunocytochemistry: grafts Positive for HPV (percent),HPV-11; CTC-96 0.2%,(0%)
same,Histology: grafts Negative for HPV (number),HPV-11; CTC-96 0.2%,12
same,Immunocytochemistry: grafts Negative for HPV (number),HPV-11; CTC-96 0.2%,12
same,Histology: grafts Positive for HPV (number),HPV-11; CTC-96 1%,0
same,Histology: grafts Positive for HPV (percent),HPV-11; CTC-96 1%,(0%)
same,Immunocytochemistry: grafts Positive for HPV (number),HPV-11; CTC-96 1%,0
same,Immunocytochemistry: grafts Positive for HPV (percent),HPV-11; CTC-96 1%,(0%)
same,RT-PCR: grafts HPV-11 Negative (number),HPV-11; CTC-96 1%,15
same,RT-PCR: grafts HPV-11 Positive (number),HPV-11; CTC-96 1%,0
same,RT-PCR: grafts HPV-11 Positive (percent),HPV-11; CTC-96 1%,(0%)
same,Histology: grafts Negative for HPV (number),HPV-11; CTC-96 1%,16
same,Immunocytochemistry: grafts Negative for HPV (number),HPV-11; CTC-96 1%,17
same,"Composite Geometric Mean Diameters (cGMD) of the Grafts, Median",HPV-11; [2],2.01 mm
same,"Composite Geometric Mean Diameters (cGMD) of the Grafts, Mean ± SD",HPV-11; [2],2.02 ± 0.179 mm
same,"Composite Geometric Mean Diameters (cGMD) of the Grafts, Median",HPV-11; [3],1.88 mm
same,"Composite Geometric Mean Diameters (cGMD) of the Grafts, Mean ± SD",HPV-11; [3],1.86 ± 0.196 mm
same,"Composite Geometric Mean Diameters (cGMD) of the Grafts, Median",HPV-11; HPV-11 treated with CTC-96 1%,1.94 mm
same,"Composite Geometric Mean Diameters (cGMD) of the Grafts, Mean ± SD",HPV-11; HPV-11 treated with CTC-96 1%,1.95 ± 0.139 mm
same,RT-PCR: grafts HPV-11 Negative (number),HPV-11; [4],5
same,RT-PCR: grafts HPV-11 Positive (percent),HPV-11; [4],(28.6%)
same,Virucidal effect on HPV-11,HPV-11; highest concentration of CTC-96 (1%),completely virucidal
same,Effect on the animals' mortality or weight gain,"HPV-11; mouse, in vivo",no effect
